Data taken from publication PMC5218480 (PLoS ONE, 2017).

Test system: MV-4-11 cells
Assay: Gene expression microarray analysis (Affymetrix PrimeView) and GSEA
Type: cell-based, human
Set-up: RFU PODN (11730768_x_at) / Fold change /veh PODN (11730768_x_at) / RFU LINC00158 (11744669_a_at) / Fold change /veh LINC00158 (11744669_a_at) / RFU DUSP10 (11751237_a_at) / Fold change /veh DUSP10 (11751237_a_at) / RFU ID3 (11757404_x_at) / Fold change /veh ID3 (11757404_x_at) / RFU PLEKHG5 (11737974_s_at) / Fold change /veh PLEKHG5 (11737974_s_at) / RFU LRRC4B (11730491_at) / Fold change /veh LRRC4B (11730491_at) / RFU GIMAP4 (11747438_a_at) / Fold change /veh GIMAP4 (11747438_a_at) / RFU KRT8 (11758183_x_at) / Fold change /veh KRT8 (11758183_x_at) / RFU CNN1 (11734310_a_at) / Fold change /veh CNN1 (11734310_a_at) / RFU VPS37D (11726825_at) / Fold change /veh VPS37D (11726825_at) / RFU C10orf10 (11716522_x_at) / Fold change /veh C10orf10 (11716522_x_at) / RFU KIR2DL2 /// KIR2DL4 /// KIR2DL5A /// KIR2DL5B /// KIR2DS1 /// KIR2DS2 /// KIR2DS3 /// KIR2DS4 /// KIR3DL3 /// KIR3DL3 /// KIR3DS1 (11738374_at) / Fold change /veh KIR2DL2 /// KIR2DL4 /// KIR2DL5A /// KIR2DL5B /// KIR2DS1 /// KIR2DS2 /// KIR2DS3 /// KIR2DS4 /// KIR3DL3 /// KIR3DL3 /// KIR3DS1 (11738374_at) / RFU C1QL1 (11718748_at) / Fold change /veh C1QL1 (11718748_at) / RFU TMPRSS4 (11747572_a_at) / Fold change /veh TMPRSS4 (11747572_a_at) / RFU HAMP (11756126_x_at) / Fold change /veh HAMP (11756126_x_at) / RFU RNFT2 (11725882_a_at) / Fold change /veh RNFT2 (11725882_a_at) / RFU NR4A2 (11747474_a_at) / Fold change /veh NR4A2 (11747474_a_at) / RFU ABCC12 (11746883_a_at) / Fold change /veh ABCC12 (11746883_a_at) / RFU TMEM136 (11760407_x_at) / Fold change /veh TMEM136 (11760407_x_at) / RFU CLDN22 /// WWC2 (11732394_at) / Fold change /veh CLDN22 /// WWC2 (11732394_at) / RFU HLA-DPB1 (11760878_x_at) / Fold change /veh HLA-DPB1 (11760878_x_at) / RFU SPINT1 (11716480_a_at) / Fold change /veh SPINT1 (11716480_a_at) / RFU GAP43 (11754022_s_at) / Fold change /veh GAP43 (11754022_s_at) / RFU A4GNT (11735810_at) / Fold change /veh A4GNT (11735810_at) / RFU PRB3 (11715151_x_at) / Fold change /veh PRB3 (11715151_x_at) / RFU TUBB4B (11761932_at) / Fold change /veh TUBB4B (11761932_at) / RFU CAPN14 (11732068_a_at) / Fold change /veh CAPN14 (11732068_a_at) / RFU TMCC2 (11721928_a_at) / Fold change /veh TMCC2 (11721928_a_at) / RFU IRGQ (11745062_a_at) / Fold change /veh IRGQ (11745062_a_at) / RFU FAM174B (11720279_a_at) / Fold change /veh FAM174B (11720279_a_at) / RFU TMPRSS4 (11748680_a_at) / Fold change /veh TMPRSS4 (11748680_a_at) / RFU FAM212B (11763350_a_at) / Fold change /veh FAM212B (11763350_a_at) / RFU PLEKHG5 (11743358_a_at) / Fold change /veh PLEKHG5 (11743358_a_at) / RFU ZSCAN30 (11745921_a_at) / Fold change /veh ZSCAN30 (11745921_a_at) / RFU CMKLR1 (11741424_a_at) / Fold change /veh CMKLR1 (11741424_a_at) / RFU LOC101060620 /// MAPK8IP1 (11723275_at) / Fold change /veh LOC101060620 /// MAPK8IP1 (11723275_at) / RFU SPTSSB (11747773_x_at) / Fold change /veh SPTSSB (11747773_x_at) / RFU PRSS12 (11739890_at) / Fold change /veh PRSS12 (11739890_at) / RFU BIN1 (11741810_x_at) / Fold change /veh BIN1 (11741810_x_at) / RFU WNT11 (11732464_a_at) / Fold change /veh WNT11 (11732464_a_at) / RFU C10orf10 (11716521_a_at) / Fold change /veh C10orf10 (11716521_a_at) / RFU C5orf56 (11738089_at) / Fold change /veh C5orf56 (11738089_at) / RFU CYB561 (11721691_x_at) / Fold change /veh CYB561 (11721691_x_at) / RFU ANKRD19P (11752326_a_at) / Fold change /veh ANKRD19P (11752326_a_at) / RFU OR2T12 /// OR2T33 /// OR2T8 (11738714_s_at) / Fold change /veh OR2T12 /// OR2T33 /// OR2T8 (11738714_s_at) / RFU VCAN (11748164_a_at) / Fold change /veh VCAN (11748164_a_at) / RFU JSRP1 (11732532_at) / Fold change /veh JSRP1 (11732532_at) / RFU KRTAP10-11 (11738290_x_at) / Fold change /veh KRTAP10-11 (11738290_x_at) / RFU MYO3A (11730013_a_at) / Fold change /veh MYO3A (11730013_a_at) / RFU EBF3 (11725865_a_at) / Fold change /veh EBF3 (11725865_a_at) / RFU CAMK2N1 (11719241_x_at) / Fold change /veh CAMK2N1 (11719241_x_at) / RFU C5orf56 (11738088_a_at) / Fold change /veh C5orf56 (11738088_a_at) / RFU OLFML3 (11715873_a_at) / Fold change /veh OLFML3 (11715873_a_at) / RFU LOC100653217 /// NTM (11731650_a_at) / Fold change /veh LOC100653217 /// NTM (11731650_a_at) / RFU MAPK11 (11762145_a_at) / Fold change /veh MAPK11 (11762145_a_at) / RFU FIZ1 (11724087_x_at) / Fold change /veh FIZ1 (11724087_x_at) / RFU OASL (11726364_x_at) / Fold change /veh OASL (11726364_x_at) / RFU SOX15 (11748057_x_at) / Fold change /veh SOX15 (11748057_x_at) / RFU CD79A (11719716_a_at) / Fold change /veh CD79A (11719716_a_at) / RFU HIST1H1D (11736915_at) / Fold change /veh HIST1H1D (11736915_at) / RFU CASKIN2 (11723855_a_at) / Fold change /veh CASKIN2 (11723855_a_at) / RFU LOC730098 (11760151_x_at) / Fold change /veh LOC730098 (11760151_x_at) / RFU OR4N2 (11742367_at) / Fold change /veh OR4N2 (11742367_at) / RFU PRRT2 (11749266_a_at) / Fold change /veh PRRT2 (11749266_a_at) / RFU SNX32 (11753110_a_at) / Fold change /veh SNX32 (11753110_a_at) / RFU CDHR5 (11726645_a_at) / Fold change /veh CDHR5 (11726645_a_at) / RFU RCAN1 (11760418_a_at) / Fold change /veh RCAN1 (11760418_a_at) / RFU FAM167A (11723789_a_at) / Fold change /veh FAM167A (11723789_a_at) / RFU FAM26E (11764081_at) / Fold change /veh FAM26E (11764081_at) / RFU ISYNA1 (11749810_s_at) / Fold change /veh ISYNA1 (11749810_s_at) / RFU ACY1 (11761880_at) / Fold change /veh ACY1 (11761880_at) / RFU 11764098_at / Fold change /veh 11764098_at / RFU SAMD14 (11745864_x_at) / Fold change /veh SAMD14 (11745864_x_at) / RFU NPB (11741838_a_at) / Fold change /veh NPB (11741838_a_at) / RFU TMPRSS6 (11731388_a_at) / Fold change /veh TMPRSS6 (11731388_a_at) / RFU KRTAP10-2 (11738614_at) / Fold change /veh KRTAP10-2 (11738614_at) / RFU ARHGAP8 /// PRR5-ARHGAP8 (11727945_x_at) / Fold change /veh ARHGAP8 /// PRR5-ARHGAP8 (11727945_x_at) / RFU KRTAP5-7 /// NADSYN1 (11734609_at) / Fold change /veh KRTAP5-7 /// NADSYN1 (11734609_at) / RFU RASL12 (11751679_a_at) / Fold change /veh RASL12 (11751679_a_at) / RFU CDKN2B (11736163_a_at) / Fold change /veh CDKN2B (11736163_a_at) / RFU PRF1 (11729649_at) / Fold change /veh PRF1 (11729649_at) / RFU, ZNF638 /// ZNF638-IT1 / Fold change vs veh, ZNF638 /// ZNF638-IT1 / RFU, PANK3 / Fold change vs veh, PANK3 / RFU, SH3YL1 / Fold change vs veh, SH3YL1 / RFU, ZEB2 / Fold change vs veh, ZEB2 / RFU, NRIP1 / Fold change vs veh, NRIP1 / RFU, PTTG1IP / Fold change vs veh, PTTG1IP / RFU, CAPN2 / Fold change vs veh, CAPN2 / RFU, MED14 / Fold change vs veh, MED14 / RFU, SNORA58 / Fold change vs veh, SNORA58 / RFU, C1orf63 / Fold change vs veh, C1orf63 / RFU, LRRFIP1 / Fold change vs veh, LRRFIP1 / RFU, NDUFAF7 / Fold change vs veh, NDUFAF7 / RFU, SLC12A2 / Fold change vs veh, SLC12A2 / RFU, IBTK / Fold change vs veh, IBTK / RFU, ESF1 / Fold change vs veh, ESF1 / Fold change vs veh, TMEM50B / RFU, TAOK1 / Fold change vs veh, TAOK1 / RFU, ACBD3 / Fold change vs veh, ACBD3 / RFU, TMA16 / Fold change vs veh, TMA16 / RFU, RWDD3 / Fold change vs veh, RWDD3 / RFU, BCAT1 / Fold change vs veh, BCAT1 / RFU, EDEM3 / Fold change vs veh, EDEM3 / RFU, TMEM33 / Fold change vs veh, TMEM33 / RFU, WDR75 / Fold change vs veh, WDR75 / RFU, AHCTF1 / Fold change vs veh, AHCTF1 / RFU, TFRC / Fold change vs veh, TFRC / RFU, ZDHHC17 / Fold change vs veh, ZDHHC17 / RFU, NOM1 / Fold change vs veh, NOM1 / RFU, ARL8B / Fold change vs veh, ARL8B / RFU, ZBTB11 / Fold change vs veh, ZBTB11 / RFU, TAMM41 / Fold change vs veh, TAMM41 / RFU, KIAA1704 /// LOC100996395 / Fold change vs veh, KIAA1704 /// LOC100996395 / RFU, ING1 / Fold change vs veh, ING1 / RFU, TRMT61B / Fold change vs veh, TRMT61B / RFU, FUBP3 / Fold change vs veh, FUBP3 / RFU, TP53 / Fold change vs veh, TP53 / RFU, TNKS2 / Fold change vs veh, TNKS2 / RFU, ZFP14 / Fold change vs veh, ZFP14 / RFU, ACTR2 / Fold change vs veh, ACTR2 / RFU, PPP3R1 / Fold change vs veh, PPP3R1 / RFU, PIK3R1 / Fold change vs veh, PIK3R1 / RFU, HNRNPA1 / Fold change vs veh, HNRNPA1 / RFU, RNF170 / Fold change vs veh, RNF170 / RFU, ZNF28 / Fold change vs veh, ZNF28 / RFU, RNGTT / Fold change vs veh, RNGTT / RFU, OGT / Fold change vs veh, OGT / RFU, BRD1 / Fold change vs veh, BRD1 / RFU, MARS / Fold change vs veh, MARS / RFU, ZNF655 / Fold change vs veh, ZNF655 / RFU, FAHD1 / Fold change vs veh, FAHD1 / RFU, BDP1 / Fold change vs veh, BDP1 / RFU, LRRCC1 / Fold change vs veh, LRRCC1 / RFU, ARID1A / Fold change vs veh, ARID1A / RFU, ZNF146 / Fold change vs veh, ZNF146 / RFU, ZNF330 / Fold change vs veh, ZNF330 / RFU, GPN3 / Fold change vs veh, GPN3 / RFU, C9orf123 / Fold change vs veh, C9orf123 / RFU, N4BP2L2 / Fold change vs veh, N4BP2L2 / RFU, ARFIP1 / Fold change vs veh, ARFIP1 / RFU, FAM179B / Fold change vs veh, FAM179B / RFU, BCL10 / Fold change vs veh, BCL10 / RFU, UHRF1BP1L / Fold change vs veh, UHRF1BP1L / RFU, BET1 / Fold change vs veh, BET1 / RFU, CNOT2 / Fold change vs veh, CNOT2 / RFU, ZNF268 / Fold change vs veh, ZNF268 / Fold change vs veh, ZNF507 / RFU, DGCR2 / Fold change vs veh, DGCR2 / RFU, WDSUB1 / Fold change vs veh, WDSUB1 / Fold change vs veh, HSP90B1 /// MIR3652 / RFU, ADSS / Fold change vs veh, ADSS / RFU, GK / Fold change vs veh, GK / RFU, ZNF148 / Fold change vs veh, ZNF148 / RFU, TAF9 / Fold change vs veh, TAF9 / RFU, SLC1A5 / Fold change vs veh, SLC1A5 / RFU, SLMO2 / Fold change vs veh, SLMO2 / RFU, ABCC4 / Fold change vs veh, ABCC4 / RFU, LOC101060439 /// RAP1B / Fold change vs veh, LOC101060439 /// RAP1B / RFU, RFX7 / Fold change vs veh, RFX7 / RFU, GTPBP10 / Fold change vs veh, GTPBP10 / RFU, CNEP1R1 / Fold change vs veh, CNEP1R1 / RFU, BIVM-ERCC5 /// ERCC5 / Fold change vs veh, BIVM-ERCC5 /// ERCC5 / RFU, ILF3 / Fold change vs veh, ILF3 / RFU 11762660_at / Fold change /veh 11762660_at / RFU VCAN (11757783_s_at) / Fold change /veh VCAN (11757783_s_at) / RFU DDX43 (11728927_at) / Fold change /veh DDX43 (11728927_at) / RFU KRT8 (11758188_x_at) / Fold change /veh KRT8 (11758188_x_at) / RFU NKD1 (11759106_at) / Fold change /veh NKD1 (11759106_at) / RFU SRD5A1 (11742802_a_at) / Fold change /veh SRD5A1 (11742802_a_at) / RFU TPSAB1 /// TPSB2 (11721975_s_at) / Fold change /veh TPSAB1 /// TPSB2 (11721975_s_at) / RFU GSTM3 (11746129_a_at) / Fold change /veh GSTM3 (11746129_a_at) / RFU IL23R (11737362_x_at) / Fold change /veh IL23R (11737362_x_at) / RFU TMEM51 (11727254_a_at) / Fold change /veh TMEM51 (11727254_a_at) / RFU PIWIL2 (11732686_x_at) / Fold change /veh PIWIL2 (11732686_x_at) / RFU ORM1 (11744905_x_at) / Fold change /veh ORM1 (11744905_x_at) / RFU CCDC152 (11743942_at) / Fold change /veh CCDC152 (11743942_at) / RFU ECM1 (11717891_a_at) / Fold change /veh ECM1 (11717891_a_at) / RFU IL23R (11748794_a_at) / Fold change /veh IL23R (11748794_a_at) / RFU TNFAIP8L3 (11732012_x_at) / Fold change /veh TNFAIP8L3 (11732012_x_at) / RFU MBOAT4 (11741988_at) / Fold change /veh MBOAT4 (11741988_at) / RFU 11764193_at / Fold change /veh 11764193_at / RFU TMEM53 (11763286_at) / Fold change /veh TMEM53 (11763286_at) / RFU MAGEB2 (11727129_at) / Fold change /veh MAGEB2 (11727129_at) / RFU TMEM200A (11744735_a_at) / Fold change /veh TMEM200A (11744735_a_at) / RFU CCDC152 (11751479_a_at) / Fold change /veh CCDC152 (11751479_a_at) / RFU FAM211A (11726209_a_at) / Fold change /veh FAM211A (11726209_a_at) / RFU RGS16 (11746705_a_at) / Fold change /veh RGS16 (11746705_a_at) / RFU VCAN (11755009_s_at) / Fold change /veh VCAN (11755009_s_at) / RFU RHOB (11743442_s_at) / Fold change /veh RHOB (11743442_s_at) / RFU RGS16 (11720943_a_at) / Fold change /veh RGS16 (11720943_a_at) / RFU RGS16 (11720944_at) / Fold change /veh RGS16 (11720944_at) / RFU, VPS4B / Fold change vs veh, VPS4B / RFU, CREB1 / Fold change vs veh, CREB1 / RFU, DNAJC13 / Fold change vs veh, DNAJC13 / RFU, GNAQ / Fold change vs veh, GNAQ / RFU, CDK5R1 / Fold change vs veh, CDK5R1 / RFU, ZRANB3 / Fold change vs veh, ZRANB3 / RFU, CUL4A / Fold change vs veh, CUL4A / RFU, CCNY / Fold change vs veh, CCNY / RFU, UFL1 / Fold change vs veh, UFL1 / RFU, COG3 / Fold change vs veh, COG3 / RFU, DIAPH2 / Fold change vs veh, DIAPH2 / RFU, SKA2 / Fold change vs veh, SKA2 / RFU, AFF3 / Fold change vs veh, AFF3 / RFU, LMF1 / Fold change vs veh, LMF1 / RFU, IPO11 / Fold change vs veh, IPO11 / RFU, DFFB / Fold change vs veh, DFFB / RFU, FOXP1 / Fold change vs veh, FOXP1 / RFU, CARD8 / Fold change vs veh, CARD8 / RFU, STRN3 / Fold change vs veh, STRN3 / RFU, ADK / Fold change vs veh, ADK / RFU, RASSF2 / Fold change vs veh, RASSF2 / RFU, WIPF1 / Fold change vs veh, WIPF1 / RFU, LARP1B / Fold change vs veh, LARP1B / RFU, RASA1 / Fold change vs veh, RASA1 / RFU, RB1 / Fold change vs veh, RB1 / RFU, PPFIA1 / Fold change vs veh, PPFIA1 / RFU, MAT2A / Fold change vs veh, MAT2A / RFU, CCT5 / Fold change vs veh, CCT5 / RFU, WDR92 / Fold change vs veh, WDR92 / RFU, CUX1 / Fold change vs veh, CUX1 / RFU, TTC7A / Fold change vs veh, TTC7A / RFU, TMEM135 / Fold change vs veh, TMEM135 / RFU, DEPTOR / Fold change vs veh, DEPTOR / RFU, CPM / Fold change vs veh, CPM / RFU, DNAJB6 / Fold change vs veh, DNAJB6 / RFU, CACNA2D3 / Fold change vs veh, CACNA2D3 / RFU, DTX4 / Fold change vs veh, DTX4 / RFU, TFCP2 / Fold change vs veh, TFCP2 / RFU, GMCL1 /// GMCL1P1 / Fold change vs veh, GMCL1 /// GMCL1P1 / RFU, AEBP2 / Fold change vs veh, AEBP2 / RFU, SNHG1 /// SNORD22 /// SNORD25 /// SNORD26 /// SNORD27 /// SNORD28 /// SNORD29 /// SNORD31 / Fold change vs veh, SNHG1 /// SNORD22 /// SNORD25 /// SNORD26 /// SNORD27 /// SNORD28 /// SNORD29 /// SNORD31 / Fold change (Aza/veh), C12orf56 (ProbeSet 11735607_a_at) / Fold change (ACY-1035/veh), C12orf56 (ProbeSet 11735607_a_at) / Fold change (Aza/veh), FGFR1OP (ProbeSet 11751329_s_at) / Fold change (ACY-1035/veh), FGFR1OP (ProbeSet 11751329_s_at) / Fold change (Aza/veh), VPS36 (ProbeSet 11739960_a_at) / Fold change (ACY-1035/veh), VPS36 (ProbeSet 11739960_a_at) / RFU SYPL1 (11715823_x_at) / Fold change /veh SYPL1 (11715823_x_at) / RFU IGFBP7 (11715501_s_at) / Fold change /veh IGFBP7 (11715501_s_at) / RFU REEP3 (11722064_at) / Fold change /veh REEP3 (11722064_at) / RFU IGLL1 (11728026_x_at) / Fold change /veh IGLL1 (11728026_x_at): dose or concentration left out as unconfirmed
Conditions: MV-4-11 cells, 48 hours

**Q.** For Nc1ncn([C@@H]2O[C@H](CO)[C@@H](O)[C@H]2O)c(=O)n1 [azacitidine], which “RFU RCAN1 (11760418_a_at)” value is on record?
**A.** 18.64 RFU
